# From US11707442B2, “Antibacterial and antifungal compounds” (The General Hospital Corporation, priority 2015, dated 2023)
# Read-outs that look alike come from different tables or passages of the source.
# Assays:
# S. aureus = test: Minimal inhibitory concentration (MIC), broth microdilution; type: cell-based, Staphylococcus aureus; details: Staphylococcus aureus
# Method in brief: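 MIC values against methicillin-resistant Staphylococcus aureus were determined by standard broth microdilution following Clinical and Laboratory Standards Institute guidance (CLSI document M07-A8). Each well held 100 μl of test compound plus bacterial cells in MH broth, with the starting OD600 set to 0.03. Plates were incubated 18 hrs at 35° C. and absorbance was then read at 595 nm.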
# K. pneumonia WGLW2 = test: MIC, broth microdilution; type: cell-based, Klebsiella pneumoniae; details: Klebsiella pneumoniae; K. pneumonia WGLW2; read-out: Minimum inhibitory concentration
# Method in brief: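 MIC by CLSI broth microdilution (M07-A8) in MH broth; E. aerogenes, K. pneumoniae and A. baumannii pre-grown in LB, E. faecium in BHI, at 37° C. Inoculum at initial OD600 0.03, incubated 18 hrs at 35° C., growth read as absorbance at 595 nm.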
# [1] = test system: primary human hepatocytes; test: Hepatotoxicity (WST-1); type: cell-based; details: at 32 μg/ml, 24 h
# Experimental: Hepatotoxicity. Cryopreserved primary human hepatocytes were purchased from Cell Resource Core at Massachusetts General Hospital (Boston, Mass., USA). The hepatocytes were cultured in collagen sandwiched configuration in 24-well plates, as described previously (See, e.g., Dunn, J. C., et al. Hepatocyte function and extracellular matrix geometry: long-term culture in a sandwich configuration. FASEB J. 3, 174-177 (1989); Dunn, J. C., et al. Hepatocytes in collagen sandwich: evidence for transcriptional and translational regulation. J. Cell Biol. 116, 1043-1053 (1992); and Sharma, N. S. et al. Metabolic profiling based quantitative evaluation of hepatocellular metabolism in presence of adipocyte derived extracellular matrix. PLoS ONE 6, e20137 (2011)). Briefly, 0.4×10^6 live cells were seeded in 24-well plates coated with rat tail collagen type I. In order for cells to attach onto collagen gel, the 24-well plates were incubated in a humidified 5% CO2 incubator at 37° C. for 4 hours. The cells were washed and then cultured in 0.5 ml standard hepatocyte culture medium consisting of pre-warmed DMEM media supplemented with 10% FBS, 0.5 U/ml insulin, 14 ng/ml glucagon, 20 ng/ml EGF, 7.5 μg/ml hydrocortisone and 200 U/ml penicillin-streptomycin. The cell cultures were incubated in a humidified 5% CO2 incubator at 37° C. At 24 h after seeding, a top layer of collagen gel was deposited on the hepatocytes attached to the bottom collagen layer and incubated for another 24 h, then the hepatocytes were treated with a range of concentrations of retinoids for 24 h. […] WST-1 reduction was measured at absorbance 450 nm. The percent […] relative to that of the no-treatment control was calculated. […]
# 0.4×10^6 primary human hepatocytes cultured in a collagen gel sandwich system were treated with a range of concentration of the synthetic retinoids for 24 h. Cell viability was calculated based on the absorbance readings at 450 nm at 4 h after adding WST-1 using the following equation: % viability=(Abssample−Absblank)/(Absnon-treated−Absblank)×100. […]
# [2] = test system: Salmonella typhimurium strains TA 1535 and TA 1538
# Experimental: The Ames test was conducted using histidine auxotroph Salmonella typhimurium strains TA 1535 and TA 1538. To test mutagenic potential of the synthetic retinoids themselves and their metabolic products, the assay was conducted both with and without rat liver S9 fraction (Moltox, Boone, N.C., USA). Briefly, 100 μl of bacterial overnight cultures was added into 500 μl of phosphate buffer containing a range of amounts of the retinoids dissolved in 10 μl DMSO and with or without 4% S9. After incubation at 37° C. for 1 h, the samples were added into 2 ml of soft agar including 0.5 mM of histidine/biotin, mixed, and poured onto minimal glucose agar plates. The plates were incubated at 37° C. for 48 h, and the revertant colonies were counted. 10 μl DMSO was used as a negative control. […] 5 μg/plate 2-aminoanthracene was used as a positive control for both strains in the metabolic activation system. The test was performed in triplicate.
structure (smiles),measurement,setting,value
"O=C(O)c1ccc(-c2ccc3cc(O)c(C45CC6CC(CC(C6)C4)C5)cc3c2)cc1 [CD1530, 4-(6-hydroxy-7-tricyclo[3.3.1.13,7]dec-1-yl-2-naphthalenyl)-benzoic acid]",MIC,"S. aureus; MRSA, 28 clinical MRSA isolates, 28/28 isolates, read-out: MIC",≤ 2 µg/mL
same,MIC,"S. aureus; S. aureus BF1, read-out: Minimum inhibitory concentration",2 µg/mL
same,MIC,"S. aureus; S. aureus BF2, read-out: Minimum inhibitory concentration",1 µg/mL
same,MIC,"S. aureus; S. aureus BF3, read-out: Minimum inhibitory concentration",1 µg/mL
same,MIC,"S. aureus; S. aureus BF4, read-out: Minimum inhibitory concentration",1 µg/mL
same,MIC,"S. aureus; S. aureus BF5, read-out: Minimum inhibitory concentration",1 µg/mL
same,MIC,"S. aureus; S. aureus BF6, read-out: Minimum inhibitory concentration",1 µg/mL
same,MIC,"S. aureus; S. aureus BF7, read-out: Minimum inhibitory concentration",1 µg/mL
same,MIC,"S. aureus; S. aureus BF8, read-out: Minimum inhibitory concentration",1 µg/mL
same,MIC,"S. aureus; S. aureus BF9, read-out: Minimum inhibitory concentration",2 µg/mL
same,MIC,"S. aureus; S. aureus BF10, read-out: Minimum inhibitory concentration",1 µg/mL
same,MIC,"S. aureus; S. aureus BF11, read-out: Minimum inhibitory concentration",1 µg/mL
same,MIC,"S. aureus; S. aureus JE2 (wild-type), read-out: MIC",1.5 µg/mL
same,MIC,"S. aureus; S. aureus MW2, read-out: Minimum inhibitory concentration",1 µg/mL
same,MIC,S. aureus; S. aureus MW2 mutant SP1-8 (graS),1.5 µg/mL
same,MIC,"S. aureus; S. aureus MW2 mutant SP1-48 (graS, manA)",2 µg/mL
same,MIC,"S. aureus; S. aureus MW2 mutant SP1-74 (graS, manA, MW2474)",2 µg/mL
same,MIC,"S. aureus; S. aureus MW2 mutant SP1-100 (graS, manA, MW2474)",2 µg/mL
same,MIC,S. aureus; S. aureus MW2 mutant SP2-13 (yjbH),1.5 µg/mL
same,MIC,"S. aureus; S. aureus MW2 mutant SP2-52 (yjbH, dltB)",1.5 µg/mL
same,MIC,"S. aureus; S. aureus MW2 mutant SP2-59 (yjbH, dltB, manA)",2 µg/mL
same,MIC,"S. aureus; S. aureus MW2 mutant SP2-65 (yjbH, dltB, manA, MW1685)",2 µg/mL
same,MIC,"S. aureus; S. aureus MW2 mutant SP2-100 (yjbH dltB, manA, MW1685)",2 µg/mL
same,MIC,S. aureus; S. aureus MW2 serial passage culture SP1-1 (no mutated gene),1 µg/mL
same,MIC,S. aureus; S. aureus MW2 serial passage culture SP2-1 (no mutated gene),1 µg/mL
same,MIC,S. aureus; S. aureus NE896 (JE2 yjbH::ϕNΣ),2 µg/mL
same,MIC,S. aureus; S. aureus NE1645 (JE2 manA::ϕNΣ),3 µg/mL
same,MIC,S. aureus; S. aureus NE1756 (JE2 graS::ϕNΣ),2 µg/mL
same,MIC,"S. aureus; S. aureus VRS1, read-out: Minimum inhibitory concentration",1 µg/mL
same,MIC,"S. aureus; methicillin resistant S. aureus (MRSA) strain MW2, read-out: MIC",1 µg/mL
same,MIC,K. pneumonia WGLW2,> 64 µg/mL
same,toxicity to primary human hepatocytes,[1],did not cause significant toxicity
same,genotoxic potential,"[2]; Ames test, result in words",did not show significant genotoxic potential
same,Number of revertants (T1535),"[2]; With S9, 5 μg/plate",7 ± 3
same,Number of revertants (T1538),"[2]; With S9, 5 μg/plate",7 ± 3
same,Number of revertants (T1535),"[2]; With S9, 25 μg/plate",7 ± 2
same,Number of revertants (T1538),"[2]; With S9, 25 μg/plate",10 ± 4
same,Number of revertants (T1535),"[2]; With S9, 100 μg/plate",8 ± 2
same,Number of revertants (T1538),"[2]; With S9, 100 μg/plate",8 ± 2
same,Number of revertants (T1535),"[2]; Without S9, 5 μg/plate",7 ± 3
same,Number of revertants (T1538),"[2]; Without S9, 5 μg/plate",3 ± 3
same,Number of revertants (T1535),"[2]; Without S9, 25 μg/plate",7 ± 2
same,Number of revertants (T1538),"[2]; Without S9, 25 μg/plate",4 ± 2
same,Number of revertants (T1535),"[2]; Without S9, 100 μg/plate",8 ± 4
same,Number of revertants (T1538),"[2]; Without S9, 100 μg/plate",4 ± 2
